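Where inhibition never reached the appropriate level, the endpoint shown equals the highest concentration tested. Otherwise, values were interpolated linearly from a five-concentration, 48-hour dose response in 96-well plates. Abbreviation: GI50, concentration required for 50% inhibition of growth.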 Active and inactive are the calls of the source. Cut-off read from the data, not from the text of the source: active = GI50 up to about 1.1 µM and inactive = higher.
Legend:
Assay in all cases: NCI anticancer screen, dose series, 48 h
786-0 = test system: 786-0
A498 = test system: A498
A549 = test system: A549
ACHN = test system: ACHN
BT-549 = test system: BT-549
CAKI-1 = test system: CAKI-1
CCRF-CEM = test system: CCRF-CEM
COLO 205 = test system: COLO 205
DU-145 = test system: DU-145
EKVX = test system: EKVX
HCC 2998 = test system: HCC 2998
HCT-116 = test system: HCT-116
HCT-15 = test system: HCT-15
HOP-62 = test system: HOP-62
HOP-92 = test system: HOP-92
HT-29 = test system: HT-29
Hs-578T = test system: Hs-578T
IGROV-1 = test system: IGROV-1
K562 = test system: K562
KM12 = test system: KM12
LOX IMVI = test system: LOX IMVI
M14 = test system: M14
MCF7 = test system: MCF7
MDA-MB-231 = test system: MDA-MB-231
MDA-MB-435 = test system: MDA-MB-435
MDA-N = test system: MDA-N
MOLT-4 = test system: MOLT-4
NCI-H226 = test system: NCI-H226
NCI-H23 = test system: NCI-H23
NCI-H460 = test system: NCI-H460
NCI-H522 = test system: NCI-H522
NCI/ADR-RES = test system: NCI/ADR-RES
OVCAR-3 = test system: OVCAR-3
OVCAR-4 = test system: OVCAR-4
OVCAR-5 = test system: OVCAR-5
OVCAR-8 = test system: OVCAR-8
PC-3 = test system: PC-3
RPMI-8226 = test system: RPMI-8226
RXF 393 = test system: RXF 393
SF-268 = test system: SF-268
SF-295 = test system: SF-295
SF-539 = test system: SF-539
SK-MEL-28 = test system: SK-MEL-28
SK-MEL-2 = test system: SK-MEL-2
SK-MEL-5 = test system: SK-MEL-5
SK-OV-3 = test system: SK-OV-3
SN12C = test system: SN12C
SNB-19 = test system: SNB-19
SNB-75 = test system: SNB-75
SR = test system: SR
SW-620 = test system: SW-620
T47D = test system: T47D
TK-10 = test system: TK-10
U-251 = test system: U-251
UACC-257 = test system: UACC-257
UACC-62 = test system: UACC-62
UO-31 = test system: UO-31
HL-60 = test system: HL-60
Malme-3M = test system: Malme-3M

CC(=O)/C(=C/N1CCNC1=S)C(=O)Nc1ccccc1C
GI50 (786-0): > 100 µM (inactive) | GI50 (A498): > 100 µM (inactive) | GI50 (A549): > 100 µM (inactive) | GI50 (ACHN): > 100 µM (inactive) | GI50 (BT-549): > 100 µM (inactive) | GI50 (CAKI-1): > 100 µM (inactive) | GI50 (CCRF-CEM): > 100 µM (inactive) | GI50 (COLO 205): > 100 µM (inactive) | GI50 (DU-145): > 100 µM (inactive) | GI50 (EKVX): > 100 µM (inactive) | GI50 (HCC 2998): > 100 µM (inactive) | GI50 (HCT-116): > 100 µM (inactive) | GI50 (HCT-15): > 100 µM | GI50 (HOP-62): > 100 µM (inactive) | GI50 (HOP-92): > 100 µM (inactive) | GI50 (HT-29): > 100 µM (inactive) | GI50 (Hs-578T): > 100 µM (inactive) | GI50 (IGROV-1): > 100 µM (inactive) | GI50 (K562): > 100 µM (inactive) | GI50 (KM12): > 100 µM (inactive) | GI50 (LOX IMVI): > 100 µM (inactive) | GI50 (M14): > 100 µM (inactive) | GI50 (MCF7): > 100 µM (inactive) | GI50 (MDA-MB-231): > 100 µM (inactive) | GI50 (MDA-MB-435): > 100 µM (inactive) | GI50 (MDA-N): > 100 µM (inactive) | GI50 (MOLT-4): > 100 µM (inactive) | GI50 (NCI-H226): > 100 µM (inactive) | GI50 (NCI-H23): > 100 µM (inactive) | GI50 (NCI-H460): > 100 µM (inactive) | GI50 (NCI-H522): > 100 µM (inactive) | GI50 (NCI/ADR-RES): > 100 µM (inactive) | GI50 (OVCAR-3): > 100 µM (inactive) | GI50 (OVCAR-4): > 100 µM (inactive) | GI50 (OVCAR-5): > 100 µM (inactive) | GI50 (OVCAR-8): > 100 µM (inactive) | GI50 (PC-3): > 100 µM (inactive) | GI50 (RPMI-8226): > 100 µM (inactive) | GI50 (RXF 393): > 100 µM (inactive) | GI50 (SF-268): > 100 µM (inactive) | GI50 (SF-295): > 100 µM (inactive) | GI50 (SF-539): > 100 µM (inactive) | GI50 (SK-MEL-28): > 100 µM (inactive) | GI50 (SK-MEL-2): > 100 µM (inactive) | GI50 (SK-MEL-5): > 100 µM (inactive) | GI50 (SK-OV-3): > 100 µM (inactive) | GI50 (SN12C): > 100 µM (inactive) | GI50 (SNB-19): > 100 µM (inactive) | GI50 (SNB-75): > 100 µM (inactive) | GI50 (SR): 83 µM (inactive) | GI50 (SW-620): > 100 µM (inactive) | GI50 (T47D): > 100 µM (inactive) | GI50 (TK-10): > 100 µM (inactive) | GI50 (U-251): > 100 µM (inactive) | GI50 (UACC-257): > 100 µM (inactive) | GI50 (UACC-62): > 100 µM (inactive) | GI50 (UO-31): > 100 µM (inactive)

C/C(=N/Nc1nc(C)cc(O)n1)C(=O)O
GI50 (786-0): > 100 µM (inactive) | GI50 (A498): > 100 µM (inactive) | GI50 (A549): > 100 µM (inactive) | GI50 (ACHN): > 100 µM (inactive) | GI50 (BT-549): > 100 µM (inactive) | GI50 (CAKI-1): > 100 µM (inactive) | GI50 (CCRF-CEM): > 100 µM (inactive) | GI50 (COLO 205): > 100 µM (inactive) | GI50 (DU-145): > 100 µM (inactive) | GI50 (EKVX): > 100 µM (inactive) | GI50 (HCC 2998): > 100 µM (inactive) | GI50 (HCT-116): > 100 µM (inactive) | GI50 (HCT-15): > 100 µM | GI50 (HL-60): > 100 µM (inactive) | GI50 (HOP-62): > 100 µM (inactive) | GI50 (HT-29): > 100 µM (inactive) | GI50 (Hs-578T): > 100 µM (inactive) | GI50 (IGROV-1): > 100 µM (inactive) | GI50 (K562): > 100 µM (inactive) | GI50 (KM12): > 100 µM (inactive) | GI50 (LOX IMVI): > 100 µM (inactive) | GI50 (M14): > 100 µM (inactive) | GI50 (MCF7): > 100 µM (inactive) | GI50 (MDA-MB-231): > 100 µM (inactive) | GI50 (MDA-MB-435): > 100 µM (inactive) | GI50 (MDA-N): > 100 µM (inactive) | GI50 (MOLT-4): > 100 µM (inactive) | GI50 (Malme-3M): > 100 µM (inactive) | GI50 (NCI-H226): > 100 µM (inactive) | GI50 (NCI-H23): > 100 µM (inactive) | GI50 (NCI-H460): > 100 µM (inactive) | GI50 (NCI-H522): > 100 µM (inactive) | GI50 (NCI/ADR-RES): > 100 µM (inactive) | GI50 (OVCAR-3): > 100 µM (inactive) | GI50 (OVCAR-4): > 100 µM (inactive) | GI50 (OVCAR-5): > 100 µM (inactive) | GI50 (OVCAR-8): > 100 µM (inactive) | GI50 (PC-3): > 100 µM (inactive) | GI50 (RPMI-8226): > 100 µM (inactive) | GI50 (RXF 393): > 100 µM (inactive) | GI50 (SF-268): > 100 µM (inactive) | GI50 (SF-295): > 100 µM (inactive) | GI50 (SK-MEL-28): > 100 µM (inactive) | GI50 (SK-MEL-2): > 100 µM (inactive) | GI50 (SK-MEL-5): > 100 µM (inactive) | GI50 (SK-OV-3): > 100 µM (inactive) | GI50 (SN12C): 19 µM (inactive) | GI50 (SNB-19): > 100 µM (inactive) | GI50 (SNB-75): > 100 µM (inactive) | GI50 (SR): > 100 µM (inactive) | GI50 (SW-620): > 100 µM (inactive) | GI50 (T47D): > 100 µM (inactive) | GI50 (TK-10): > 100 µM (inactive) | GI50 (U-251): > 100 µM (inactive) | GI50 (UACC-257): > 100 µM (inactive) | GI50 (UACC-62): > 100 µM (inactive) | GI50 (UO-31): > 100 µM (inactive)

O=C1Nc2ccccc2/C1=N/Nc1ccc([N+](=O)[O-])cc1
GI50 (786-0): 13.8 µM (inactive) | GI50 (A498): 15.2 µM (inactive) | GI50 (A549): 24.4 µM (inactive) | GI50 (ACHN): 13.5 µM (inactive) | GI50 (BT-549): 16.5 µM (inactive) | GI50 (CAKI-1): 15.5 µM (inactive) | GI50 (CCRF-CEM): 22.4 µM (inactive) | GI50 (COLO 205): 93.5 µM (inactive) | GI50 (DU-145): 12.9 µM (inactive) | GI50 (EKVX): 8.93 µM (inactive) | GI50 (HCC 2998): 70.5 µM (inactive) | GI50 (HCT-116): 20.7 µM (inactive) | GI50 (HCT-15): 30.3 µM | GI50 (HL-60): 15.1 µM (inactive) | GI50 (HOP-62): 14.6 µM (inactive) | GI50 (HT-29): 61.8 µM (inactive) | GI50 (Hs-578T): 9.06 µM (inactive) | GI50 (IGROV-1): 14.6 µM (inactive) | GI50 (K562): 17 µM (inactive) | GI50 (KM12): 20.2 µM (inactive) | GI50 (LOX IMVI): 21.5 µM (inactive) | GI50 (M14): 30.8 µM (inactive) | GI50 (MCF7): 37.8 µM (inactive) | GI50 (MDA-MB-231): 24.8 µM (inactive) | GI50 (MDA-MB-435): 40.3 µM (inactive) | GI50 (MDA-N): 68.5 µM (inactive) | GI50 (MOLT-4): 21.1 µM (inactive) | GI50 (Malme-3M): 17.4 µM (inactive) | GI50 (NCI-H226): 19.1 µM (inactive) | GI50 (NCI-H23): 21.5 µM (inactive) | GI50 (NCI-H460): 30.1 µM (inactive) | GI50 (NCI-H522): 11.1 µM (inactive) | GI50 (NCI/ADR-RES): 15.4 µM (inactive) | GI50 (OVCAR-3): 13.6 µM (inactive) | GI50 (OVCAR-4): 14.4 µM (inactive) | GI50 (OVCAR-5): 20.4 µM (inactive) | GI50 (OVCAR-8): 11.5 µM (inactive) | GI50 (PC-3): 27.4 µM (inactive) | GI50 (RPMI-8226): 24.8 µM (inactive) | GI50 (RXF 393): 15 µM (inactive) | GI50 (SF-268): 10.4 µM (inactive) | GI50 (SF-295): 16.9 µM (inactive) | GI50 (SF-539): 3.83 µM (inactive) | GI50 (SK-MEL-28): 41.3 µM (inactive) | GI50 (SK-MEL-2): 58.2 µM (inactive) | GI50 (SK-MEL-5): 35.6 µM (inactive) | GI50 (SK-OV-3): 24.2 µM (inactive) | GI50 (SN12C): 22.6 µM (inactive) | GI50 (SNB-19): 32.8 µM (inactive) | GI50 (SNB-75): 12.3 µM (inactive) | GI50 (SR): 1.46 µM (inactive) | GI50 (SW-620): 33.5 µM (inactive) | GI50 (T47D): 7.62 µM (inactive) | GI50 (TK-10): 24 µM (inactive) | GI50 (U-251): 30.3 µM (inactive) | GI50 (UACC-257): 29.5 µM (inactive) | GI50 (UACC-62): 28.8 µM (inactive) | GI50 (UO-31): 13.3 µM (inactive)

Source: ChEMBL document CHEMBL1201862, “PubChem BioAssay data set” (2004)
